Experimental data: patent US20110183978A1, “Phenylpyri(mi)dinylazoles” (Bayer CropScience AG, priority 2009, published 2011)
Where two headings read alike, the source gives them in different places.

Columns and labels:
[1] = tested on: Sphaerotheca fuliginea; assay: Example D: in vivo test on Sphaerotheca fuliginea (powdery mildew on cucumber); settings: Podosphaera fuliginea, 288 h, cucumber plants sprayed 24 hours before inoculation, scored after 12 days, read-out: % Wirkungsgrad
Description: In Vivo Test on Sphaerotheca Fuliginea (Powdery Mildew on Cucumber) An aqueous suspension of the active substance was prepared by homogenization of a mixture of acetone/Tween/dimethyl sulphoxide and subsequent dilution with water to the desired concentration. Cucumber plants (variety: Vert petit de Paris) are sown in cultivation dishes on a peat-pozzolanic earth substrate (50/50) at 20/23° C. and at the cotyledon stage Z10 sprayed with the aqueous suspension described above. As a control, plants are sprayed with an aqueous solution with no active substance. After 24 hours the plants are inoculated by spraying with an aqueous suspension of Sphaerotheca fuliginea spores (100,000 spores per ml). The spores are derived from a contaminated plant. The inoculated cucumber plants are incubated at ca. 20/25° C. at a relative atmospheric humidity of 60/70%. After 12 days they are scored in comparison with the control plants.

[2] = tested on: Fusarium proliferatum; assay: Example I: production of fumonisin FB1 by Fusarium proliferatum (microtitre plates); type: cell-based; settings: 120 h
[3] = tested on: Sphaerotheca fuliginea; assay: Example L: in vivo test on Sphaerotheca fuliginea (powdery mildew on cucumber/protective); settings: Podosphaera fuliginea, 168 h, cucumber, protective, assessment 7 days after inoculation, read-out: % Wirkungsgrad
Method in brief: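 Young cucumber plants sprayed at stated dosage with compound in DMF/alkylaryl polyglycol ether emulsifier diluted in water; inoculated with S. fuliginea spores one day later. Kept in greenhouse at 70% relative humidity, 23° C; protective activity assessed 7 days after inoculation.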

[4] = tested on: Alternaria solani; assay: Example M: in vivo test on Alternaria solani (leaf blotch disease/tomato/protective); settings: 168 h, tomato, protective, 500 ppm active substance, assessed 7 days after inoculation, read-out: % Wirkungsgrad (activity level)
Method in brief: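 Protective test: young tomato plants sprayed with active substance (in DMF with alkylaryl polyglycol ether emulsifier, diluted in water) at the stated dosage, then inoculated with Alternaria solani. Disease assessed 7 days after inoculation.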

[5] = physchem
[6] = tested on: Peronospora parasitica; assay: Example A: in vivo test on Peronospora parasitica (downy mildew on white cabbage); settings: Hyaloperonospora parasitica, 120 h, cabbage plants sprayed 24 hours before inoculation, scored after 5 days, read-out: % Wirkungsgrad
Description: In Vivo Test on Peronospora Parasitica (Downy Mildew on White Cabbage) An aqueous suspension of the active substance was prepared by homogenization of a mixture of acetone/Tween (dispersant)/dimethyl sulphoxide (DMSO) and subsequent dilution with water to the desired concentration. Cabbage plants (variety: Eminence) are sown in cultivation dishes on a peat-pozzolanic earth substrate (50/50) at 18-20° C. and sprayed at the cotyledon stage with the aqueous suspension described above. As a control, plants are sprayed with an aqueous solution with no active substance. After 24 hours, the plants are inoculated by spraying with an aqueous suspension of Peronospora parasitica spores (50,000 spores per ml). The spores are derived from infected plants. The inoculated cabbage plants are incubated for 5 days at ca. 20° C. in a moist atmosphere. After 5 days, they are scored in comparison with the control plants.

[7] = tested on: Fusarium graminearum; assay: microbe, parasite or virus in culture; type: cell-based
[8] = tested on: Venturia inaequalis; assay: Example O: in vivo test on Venturia inaequalis (apple scab/protective); settings: 240 h, protective, assessment 10 days after inoculation, read-out: % Wirkungsgrad
Description: (§1) Emulsifier: 1 part by weight alkylaryl polyglycol ethers For the preparation of a suitable active substance preparation, 1 part by weight of active substance is mixed with the stated quantities of solvent and emulsifier and the concentrate is diluted to the desired concentration with water. For the testing for protective activity, young plants are sprayed with the active substance preparation at the stated application dosage. […] 10 days after the inoculation, the assessment takes place.

[9] = tested on: Botrytis cinerea; assay: Example P: in vivo test on Botrytis cinerea (gray mould on bean/protective); settings: 48 h, bean, protective, 250 ppm active substance, assessed 2 days after inoculation, read-out: % Wirkungsgrad (activity level)
Description: as §1, with “dosage. After drying of the spray coating, 2 small pieces of agar with Botrytis cinerea growing on them are laid on every leaf.” for “dosage.”, “2” for “10”, “size of the infection blotches on the leaves is assessed.” for “assessment takes place.”

[10] = Fusarium proliferatum growth, OD 620, 5 days, read-out: % Inhibition des Pilzwachstums bei 50 μM
[11] = Fusarium proliferatum, 5 days at 20° C., HPLC-MS/MS, read-out: % Inhibition der FB1 produktion bei 50 μM
[12] = LogPA (logP of the stated pure compound or, in a mixture, of the main isomer, 1-substituted 3-aryl-1H-pyrazole)
[13] = 72 h, read-out: % Inhibition des Pilzwachstums bei 50 μM
[14] = 168 h, read-out: % Inhibition der DON/AcDON produktion bei 50 μM

| SMILES | pest or weed control at 500 ppm [1] [%] | inhibition at 50 µM [2, 10] [%] | inhibition at 50 µM [2, 11] [%] | pest or weed control at 500 ppm [3] [%] | pest or weed control at 500 ppm [4] [%] | chromatographic logP [5, 12] | pest or weed control at 500 ppm [6] [%] | inhibition at 50 µM [7, 13] [%] | inhibition at 50 µM [7, 14] [%] | pest or weed control at 100 ppm [8] [%] | pest or weed control at 250 ppm [9] [%] | chromatographic logP ([5]; LogPA) |
| --- | --- | --- | --- | --- | --- | --- | --- | --- | --- | --- | --- | --- |
| Fc1ccc(-c2nn(C3CCCCO3)cc2-c2ccncc2)cc1 (stereo not shown) [Compound 9] | 75 | 40 | 96 | 90 | 89 | 1.29 |  |  |  |  |  |  |
| CC(C)(C)Cn1cc(-c2ccncc2)c(-c2c(F)cccc2F)n1 [Compound 11] | 93 |  |  | 73 | 80 | 1.84 |  |  |  |  |  |  |
| CC(C)=CCn1ncc(-c2ccncc2)c1-c1c(F)cccc1F [Compound 22] | 71 |  |  |  |  | 1.72 | 97 |  |  |  |  |  |
| COCC(=O)Nc1cc(-c2cn(C3CCCCO3)nc2-c2ccc(F)cc2)ccn1 (stereo not shown) [Compound 23] |  | 73 | 100 |  |  | 2.64 | 100 |  |  |  |  |  |
| Clc1cccc(-c2nn(C3CCCCO3)cc2-c2ccncc2)c1 (stereo not shown) [Compound 28] |  |  |  |  |  | 1.55 | 97 |  |  |  |  |  |
| Clc1cccc(-c2nn(C3CCCCO3)cc2-c2ccnc3[nH]ccc23)c1 (stereo not shown) [Compound 32] |  |  |  |  |  | 2.46 | 79 |  |  |  |  |  |
| FC1(F)Oc2cccc(-c3c(-c4ccncc4)cnn3C3CCCCO3)c2O1 (stereo not shown) [Compound 33] | 71 | 99 | 99 |  |  | 1.64 | 93 |  |  |  |  |  |
| Cc1cc(F)ccc1-c1c(-c2ccncc2)cnn1C1CCCCO1 (stereo not shown) [Compound 37] | 78 |  |  |  |  | 1.4 |  | 13 | 80 |  |  |  |
| CC(C)(C)C(=O)Nc1cc(-c2cn(C3CCCCO3)nc2-c2ccc(F)cc2)ccn1 (stereo not shown) [Compound 41] | 98 | 56 | 100 |  |  | 3.19 | 72 |  |  |  |  |  |
| CC(C)n1cc(-c2ccnc(N)c2)c(-c2ccc(F)cc2)n1 [Compound 46] | 81 |  |  |  |  | 1.18 | 94 |  |  |  |  |  |
| COC(=O)C(C)n1cc(-c2ccncc2)c(-c2ccc(F)cc2)n1 (stereo not shown) [Compound 107] | 91 |  |  |  |  | 1.2 |  |  |  |  |  |  |
| Fc1ccc(-c2nn(Cc3cnc(Cl)s3)cc2-c2ccncc2)cc1 [Compound 110] | 79 |  |  |  |  | 1.54 |  |  |  |  |  |  |
| COCCOCCn1cc(-c2ccncc2)c(-c2ccc(F)cc2)n1 [Compound 134] | 85 |  |  |  | 100 | 1.04 | 94 |  |  |  |  |  |
| Fc1ccc(-c2nn(Cc3cccc(Oc4ccccc4)c3)cc2-c2ccncc2)cc1 [Compound 138] | 77 |  |  |  |  | 2.36 |  |  |  |  |  |  |
| CC(C)n1cc(-c2ccnc(NC(=O)C3CCC3)c2)c(-c2ccc(F)cc2)n1 [Compound 156] |  | 93 | 100 | 94 | 94 | 2.57 |  | 99 | 81 | 91 | 98 |  |
| CC(C)Cn1cc(-c2ccnc(NC(=O)C(C)C)n2)c(-c2ccc(F)cc2)n1 [Compound 189] |  | 0 | 90 |  | 95 |  |  |  |  | 84 | 93 | 2.92 |
| CC(C)n1cc(-c2ccnc(NC(=O)c3cccs3)c2)c(-c2ccc(F)cc2)n1 [Compound 206] |  |  |  | 94 | 90 |  |  | 75 | 99 | 83 | 100 | 3.14 |
| COCCOCC(=O)Nc1cc(-c2cn(C(C)C)nc2-c2ccc(F)cc2)ccn1 [Compound 208] |  |  |  | 100 | 80 |  |  | 101 | 100 | 78 | 100 | 2.62 |
| CC(C)n1cc(-c2ccnc(NC(=O)C(O)CO)c2)c(-c2ccc(F)cc2)n1 (stereo not shown) [Compound 210] |  |  |  | 100 | 80 |  |  | 85 | 100 | 78 | 98 | 1.76 |
| CCNC(=O)Nc1cc(-c2cn(C(C)C)nc2-c2ccc(F)cc2)ccn1 [Compound 211] |  |  |  | 93 | 70 |  |  | 16 | 99 | 92 | 100 | 2.02 |
| COCC(=O)Nc1cc(-c2cn(CCCl)nc2-c2ccc(F)cc2)ccn1 [Compound 220] |  | 99 | 100 | 97 | 95 |  |  | 100 | 99 | 96 | 100 | 2.36 |
| CC(C)C(=O)Nc1cc(-c2cn(CCCl)nc2-c2ccc(F)cc2)ccn1 [Compound 222] |  | 96 | 100 | 100 | 90 |  |  | 99 | 82 | 95 | 85 | 2.33 |
| CCOC(=O)Nc1cc(-c2cn(C(C)CC)nc2-c2ccc(F)cc2)ccn1 (stereo not shown) [Compound 268] |  |  |  | 100 | 80 |  |  | 32 | 90 | 98 | 100 | 3.08 |
| CC(C)On1cc(-c2ccnc(NC(=O)C3CC3)c2)c(-c2ccc(F)cc2)n1 [Compound 271] |  |  |  | 79 | 89 |  |  | 71 | 99 | 81 | 93 | 2.73 |
| CC(C)On1cc(-c2ccnc(NC(=O)C(C)C)c2)c(-c2ccc(F)cc2)n1 [Compound 272] |  |  |  | 94 | 94 |  |  | 33 | 99 | 89 | 100 | 3.01 |
